Data as given in patent US9738932B2, “Biomarkers for cardiovascular side-effects induced by cox-2 inhibitory compounds” (FIRALIS SAS, priority 2005, dated 2017).

Tests used:
[1] = tested on: mRNA expression in cardiovascular tissues; conditions: cynomolgus monkey, in vivo, 2 weeks
Procedure: (§1) Administration of compounds. A two-week oral-gavage treatment with the Cox-2 specific inhibitor COX189 (Lumiracoxib®, Novartis) in comparison with rofecoxib (Vioxx®, Merck), and celecoxib (Celebrex®, Pharmacia/Pfizer), and with the nonselective NSAID, diclofenac (Voltaren®, Novartis) was performed. […] The test items were administered daily at doses of 100 mg/kg/day, except Vioxx® which was administered at 50 mg/kg/day.
(§2) Gene expression profiles. After a period of time (e.g., four weeks) of compound/drug administration, the treated animals are necropsied. 120 tissues are dissected and rapidly snap-frozen for genomics analysis. Organ samples are isolated for histopathological examinations and for gene expression localizations, such as by in situ hybridization.
(§3) Gene expression profiles have been generated using the Affymetrix microarray technology. (i) RNA extraction and purification: Briefly, total RNA was obtained by acid guanidinium thiocyanate-phenol-chloroform extraction (Trizol®, Invitrogen Life Technologies, San Diego, Calif.) from each frozen tissue section and the total RNA was then purified on an affinity resin (Rneasy®, Qiagen) according to the manufacturer's instructions. Total RNA was quantified by the absorbance at λ=260 nm (A260 nm) and the purity was estimated by the ratio A260 nm/A280 nm. Integrity of the RNA molecules was confirmed by non-denaturing agarose gel electrophoresis. RNA was stored at −80° C. until analysis. […] (ii) GeneChip® experiment: All GeneChip® experiments were conducted in the Genomics Factory EU following recommendations by the manufacturer of the GeneChip® system (Affymetrix, Expression Analysis Technical Manual (Affymetrix, Santa Clara, Calif., 2005). Human U133A genome arrays were used for transcript expression analysis. Double stranded cDNA was synthesized with a starting amount of approximately 5 μg full-length total RNA using the Superscript Choice System (Invitrogen Life Technologies) in the presence of a T7-(dT) 24 DNA oligonucleotide primer. Following synthesis, the cDNA was purified by phenol/chloroform/isoamyl alcohol extraction and ethanol precipitation. The purified cDNA was then transcribed in vitro using the BioArray® High Yield RNA Transcript Labeling Kit (ENZO) in the presence of biotinylated ribonucleotides form biotin labelled cRNA. The labelled cRNA was then purified on an affinity resin (Rneasy, Qiagen), quantified and fragmented. An amount of approximately 10 μg labelled cRNA was hybridized for approximately 16 hours at 45° C. to an expression probe array. The array was then washed and stained twice with streptavidin-phycoerythrin (Molecular Probes) using the GeneChip Fluidics Workstation 400 (Affymetrix). The array was then scanned twice using a confocal laser scanner (GeneArray Scanner®, Agilent) resulting in one scanned image. This resulting “.dat-file” was processed using the MASS program (Affymetrix) into a “.cel-file”. The “.cel file” was then transferred to tan Affymetrix GeneChip Laboratory Information Management System (LIMS) database, which is connected to a UNIX Sun Solaris server through a network filing system that allows for the average intensities for all probes cells (CEL file) to be downloaded into an Oracle database (NPGN). Raw data was converted to expression levels using a “target intensity” of 100. […] The data were checked for quality and loaded in the GeneSpring® software versions 5.0 (Silicon Genetics, Calif., US) for statistical analysis.
(§4) Quality control analysis of transcriptome data: The following quality measures were analysed for each sample: Scaling factor, background, percent present calls, AFFX-GAPDH 3′: AFFX-GAPDH 5′-ratio, AFFX-GAPDH 3′ variance, AFFX-Beta-actin 3′: AFFX-Beta-actin 5′-ratio.

[2] = tested on: mRNA expression in cardiovascular tissues; assay: Affymetrix GeneChip mRNA expression profiling of monkey tissues (iliac vein, pulmonary vein, aorta, carotid artery, heart) after two-week oral-gavage treatment; conditions: iliac vein; group average (Vioxx without A60055)
Procedure: as §1, §2, §3, §4

## Cc1ccc(-c2cc(C(F)(F)F)nn2-c2ccc(S(N)(=O)=O)cc2)cc1 [Celebrex]
[1]
  ICSBP1 (204057_at) avg fold change vs control: 1.6 fold
  IFI27 (202411_at) avg fold change vs control: 3.3 fold
  IFI30 (201422_at) avg fold change vs control: 1.3 fold
  IFI44 (214453_s_at) avg fold change vs control: 1.3 fold
  IFIT1 (203153_at) avg fold change vs control: 0.8 fold
  IFIT2 (217502_at) avg fold change vs control: 1.1 fold
  IFIT4 (204747_at) avg fold change vs control: 0.8 fold
  IFITM2 (201315_x_at) avg fold change vs control: 1.0 fold
  IFITM3 (212203_x_at) avg fold change vs control: 1.1 fold
  IGF1 (209541_at) avg fold change vs control: 0.9 fold
  IGFBP4 (201508_at) avg fold change vs control: 0.6 fold
  IL1A (208200_at) avg fold change vs control: 0.4 fold
  IL2RG (204116_at) avg fold change vs control: 3.8 fold
  IL27RA (205926_at) avg fold change vs control: 1.1 fold
  INDO (210029_at) avg fold change vs control: 1.6 fold
  INPP5D (203332_s_at) avg fold change vs control: 1.6 fold
  ITGB2 (202803_s_at) avg fold change vs control: 1.1 fold
  JAK1 (214377_s_at) avg fold change vs control: 0.9 fold
  KLKB1 (206541_at) avg fold change vs control: 1.1 fold
  LCK (204890_s_at) avg fold change vs control: 3.2 fold
  LCP2 (205270_s_at) avg fold change vs control: 1.9 fold
  LILRB1 (207857_at) avg fold change vs control: 1.0 fold
  LILRB1 (211100_x_at) avg fold change vs control: 1.4 fold
  LILRB3 (208594_x_at) avg fold change vs control: 1.1 fold
  LILRB3 (210225_x_at) avg fold change vs control: 1.3 fold
  LY86 (205859_at) avg fold change vs control: 1.5 fold
  LY96 (206584_at) avg fold change vs control: 1.4 fold
  LYN (210754_s_at) avg fold change vs control: 1.5 fold
  MAF (209348_s_at) avg fold change vs control: 1.3 fold
  PCOLCE (202465_at) avg fold change vs control: 0.7 fold
  PLCL2 (216217_at) avg fold change vs control: 1.0 fold
  PLSCR1 (202446_s_at) avg fold change vs control: 1.1 fold
  PRC1 (218009_s_at) avg fold change vs control: 1.1 fold
  PRG1 (201858_s_at) avg fold change vs control: 1.0 fold
  PRG1 (201859_at) avg fold change vs control: 1.2 fold
  PTPN22 (206060_s_at) avg fold change vs control: 2.5 fold
  PTPRC (207238_s_at) avg fold change vs control: 2.5 fold
  SOCS3 (206360_s_at) avg fold change vs control: 0.9 fold
  STAT1 (209969_s_at) avg fold change vs control: 2.7 fold
  STAT1 (AFFX-HUMISGF3A/M97935_5_at) avg fold change vs control: 0.9 fold
  STAT1 (AFFX-HUMISGF3A/M97935_MA_at) avg fold change vs control: 1.3 fold
  STAT1 (AFFX-HUMISGF3A/M97935_MB_at) avg fold change vs control: 1.2 fold
  TAPBP (208829_at) avg fold change vs control: 1.1 fold
  TCTEL1 (201999_s_at) avg fold change vs control: 1.0 fold
  TLR1 (210176_at) avg fold change vs control: 1.3 fold
  TLR2 (204924_at) avg fold change vs control: 0.8 fold
  TNFAIP3 (202643_s_at) avg fold change vs control: 1.5 fold
  TNFAIP3 (202644_s_at) avg fold change vs control: 1.7 fold
  TNFSF6 (210865_at) avg fold change vs control: 1.4 fold
  TRGC2 (211144_x_at) avg fold change vs control: 1.2 fold
  TRGC2 (216920_s_at) avg fold change vs control: 1.6 fold
  VCAM1 (203868_s_at) avg fold change vs control: 1.9 fold
  XCL1 (206366_x_at) avg fold change vs control: 2.0 fold
  XCL1 (214567_s_at) avg fold change vs control: 3.5 fold
  XLKD1 (219059_s_at) avg fold change vs control: 1.5 fold
  cig5 (213797_at) avg fold change vs control: 1.3 fold
[2]
  ACE (209749_s_at) mRNA expression, Avg fold changes vs control: 0.8 fold
  B2M (216231_s_at) mRNA expression, Avg fold changes vs control: 1.3 fold
  BCL6 (215990_s_at) mRNA expression, Avg fold changes vs control: 0.9 fold
  BTN2A2 (205298_s_at) mRNA expression, Avg fold changes vs control: 1.2 fold
  CCR1 (205098_at) mRNA expression, Avg fold changes vs control: 0.9 fold
  CD2 (205831_at) mRNA expression, Avg fold changes vs control: 1.5 fold
  CD48 (204118_at) mRNA expression, Avg fold changes vs control: 1.7 fold
  CD53 (203416_at) mRNA expression, Avg fold changes vs control: 2.3 fold
  CDC2 (210559_s_at) mRNA expression, Avg fold changes vs control: 1.3 fold
  CYBB (203922_s_at) mRNA expression, Avg fold changes vs control: 1.7 fold
  EMP3 (203729_at) mRNA expression, Avg fold changes vs control: 0.9 fold
  FCER1G (204232_at) mRNA expression, Avg fold changes vs control: 1.3 fold
  FCGR2A (203561_at) mRNA expression, Avg fold changes vs control: 1.4 fold
  FCGRT (218831_s_at) mRNA expression, Avg fold changes vs control: 1.0 fold
  FKBP11 (219117_s_at) mRNA expression, Avg fold changes vs control: 0.8 fold
  FKBP11 (219118_at) mRNA expression, Avg fold changes vs control: 1.0 fold
  GP6 (220336_s_at) mRNA expression, Avg fold changes vs control: 1.1 fold
  HCLS1 (202957_at) mRNA expression, Avg fold changes vs control: 1.5 fold
  HEM1 (209734_at) mRNA expression, Avg fold changes vs control: 1.5 fold
  HLA-A (210514_x_at) mRNA expression, Avg fold changes vs control: 1.1 fold
  HLA-A (213932_x_at) mRNA expression, Avg fold changes vs control: 1.3 fold
  HLA-C (211799_x_at) mRNA expression, Avg fold changes vs control: 1.0 fold
  HLA-E (200904_at) mRNA expression, Avg fold changes vs control: 1.2 fold
  HLA-F (221978_at) mRNA expression, Avg fold changes vs control: 1.2 fold
  ICAM1 (202637_s_at) mRNA expression, Avg fold changes vs control: 0.9 fold
  IL13RA1 (210904_s_at) mRNA expression, Avg fold changes vs control: 0.9 fold
  PIK3CD (203879_at) mRNA expression, Avg fold changes vs control: 1.7 fold
  PRKCBP1 (209048_s_at) mRNA expression, Avg fold changes vs control: 1.2 fold
  PRKCBP1 (209049_s_at) mRNA expression, Avg fold changes vs control: 1.2 fold
  PTPN7 (204852_s_at) mRNA expression, Avg fold changes vs control: 2.0 fold
  SIGIRR (52940_at) mRNA expression, Avg fold changes vs control: 1.2 fold
  STAT1 (200887_s_at) mRNA expression, Avg fold changes vs control: 1.1 fold
  STAT1 (AFFX-HUMISGF3A/M97935_3_at) mRNA expression, Avg fold changes vs control: 1.1 fold
  STAT3 (208992_s_at) mRNA expression, Avg fold changes vs control: 1.0 fold
  TCIRG1 (204158_s_at) mRNA expression, Avg fold changes vs control: 0.9 fold
  THY1 (213869_x_at) mRNA expression, Avg fold changes vs control: 0.8 fold
  TMPO (209753_s_at) mRNA expression, Avg fold changes vs control: 0.9 fold
  TMSB10 (217733_s_at) mRNA expression, Avg fold changes vs control: 1.1 fold
  TNFRSF21 (218856_at) mRNA expression, Avg fold changes vs control: 1.5 fold
  TRB@ (210915_x_at) mRNA expression, Avg fold changes vs control: 2.5 fold
  TRB@ (213193_x_at) mRNA expression, Avg fold changes vs control: 2.4 fold
